Data on five compounds can be found in US20230103965A1, “NOVEL ACTIVATORS OF THE LIPIDATING TRANSPORTER ATP BINDING CASSETTE PROTEIN TYPE 1 (AB-CA1) AND THERAPEUTIC USES THEREOF” (RAMOT AT TEL-AVIV UNIVERSITY LTD., priority 2020, published 2023).

Structures are written as SMILES.

One assay concerns Human Astrocytes. The assay is described as follows: Cholesterol efflux (apoE4 lipidation) assay, BODIPY-cholesterol translocation to apoE4. The class given is cell-based. The note with it: for EC50: Astrocyte, Human astrocytes, efflux to apoE4. As to the method: Cholesterol efflux assay in HTS. CCF-STTG1 cells were plated in 384-well plates containing 50 μL/well RPMI supplemented with 10% FBS at a density of 5×10^3 cells/well, using a Multidrop 384 Reagent Dispenser (Thermo Scientific), and incubated for 48 hr. Cells were washed twice with 50 μl PBS using an EL406 Microplate Washer Dispenser (BioTek, Winooski, Vt., USA) before being labeled with 50 μl of 10 μM BODIPY-cholesterol+100 μM cyclodextrin (CD) in RPMI 1640 medium containing 0.2% BSA. The labeling medium was added using in a Washer Dispenser II (GNF, San Diego, Calif., USA). Plates were transferred automatically to a Liconic incubator (Mauren Principality of Liechtenstein) and incubated for 24 h. Subsequently, cells were washed twice as described above to remove external cholesterol. Next, 50 μl of the efflux medium was added, which contained recombinant apoE4 at a concentration of 40 μg/ml in transparent RPMI 1640 (no phenol red), again using Washer Dispenser II (GNF, San Diego, Calif., USA). The positive control contained the ABCA1 activator, CS-6253 (120 μg/ml) in addition to the acceptor (apoE4). After 7 hr of efflux, the medium was transferred to new plates, using the Bravo Automated Liquid Handling system (Agilent, Santa Clara, Calif., USA). Fluorescence polarization (FP) and fluorescence intensity (FI) of the medium were measured in a PheraStar FS plate reader (BMG Labtech, Ortenberg, Germany).
The apoE4 lipidation Assay is based on measurements of the ability of astrocytes to translocate fluorescently labelled cholesterol to recombinant non lipidated apoE4 and on the extent to which this effect is enhanced by treatment with each of the screened compounds (FIG. 2, 3). This assay is an adaptation of previous studies of cholesterol translocation from labelled astrocytes to external acceptors such as apoE4 [16], except that in order to differentiate between gene expression related effects and direct biochemical effects of the hits on ABCA1, the incubations of the HTS with the cells was limited to 8 hours. The extent to which the cells secret the labelled cholesterol and transfer it to non-lipidated apoE4 was determined by regular fluorescence as well as by fluorescence polarization microscopy. The latter technique in this context is used due to its sensitivity to particle size which decreases the background signal by differentiating between free and particle bound released cholesterol.
The assay was characterized biochemically and it was shown that translocation of labelled cholesterol to apoE4 is time and concentration dependent (FIG. 4) and was increased by the positive control ABCA1 agonistic 26mer peptide CS-6253 [4] (FIG. 5). The assay was used for high throughput screening (HTS) and selection of positive hits. 50,000 compounds from commercially available libraries were screened utilizing the double criteria of a signal greater than 3 standard deviations from the mean of all of the screened compounds, and being similar or greater than the apoE4 lipidation driven by the ABCA1 agonistic peptide CS-6253. Additional criteria included the tier drug ability value with tier 1 being best and tier 3 being least suitable, as well as a hydrophobicity value of 2<log P<5 value. This yielded 14 hits, designated Compounds #1-#14 (FIG. 6).

In assay [1] the target is T1, ABCA1 (Homo sapiens, UniProt O95477).
T1 construct: expressed in transfected cells; host or cells: BHK (baby hamster kidney) cells, ABCA1 induced with mifepristone
The assay is described as follows: ABCA1 dependency of cholesterol efflux in BHK cells with inducible ABCA1. The assay is classed as cell-based. The note with it: for ABCA1 dependency of the effect on cholesterol efflux: BHK cells, presence vs absence of ABCA1. Here is the method:
(§1) Mife=Mifepristone which induces the expression of ABCA1.
as §1
T1 sequence (O95477 whole entry, the tested form may be a part): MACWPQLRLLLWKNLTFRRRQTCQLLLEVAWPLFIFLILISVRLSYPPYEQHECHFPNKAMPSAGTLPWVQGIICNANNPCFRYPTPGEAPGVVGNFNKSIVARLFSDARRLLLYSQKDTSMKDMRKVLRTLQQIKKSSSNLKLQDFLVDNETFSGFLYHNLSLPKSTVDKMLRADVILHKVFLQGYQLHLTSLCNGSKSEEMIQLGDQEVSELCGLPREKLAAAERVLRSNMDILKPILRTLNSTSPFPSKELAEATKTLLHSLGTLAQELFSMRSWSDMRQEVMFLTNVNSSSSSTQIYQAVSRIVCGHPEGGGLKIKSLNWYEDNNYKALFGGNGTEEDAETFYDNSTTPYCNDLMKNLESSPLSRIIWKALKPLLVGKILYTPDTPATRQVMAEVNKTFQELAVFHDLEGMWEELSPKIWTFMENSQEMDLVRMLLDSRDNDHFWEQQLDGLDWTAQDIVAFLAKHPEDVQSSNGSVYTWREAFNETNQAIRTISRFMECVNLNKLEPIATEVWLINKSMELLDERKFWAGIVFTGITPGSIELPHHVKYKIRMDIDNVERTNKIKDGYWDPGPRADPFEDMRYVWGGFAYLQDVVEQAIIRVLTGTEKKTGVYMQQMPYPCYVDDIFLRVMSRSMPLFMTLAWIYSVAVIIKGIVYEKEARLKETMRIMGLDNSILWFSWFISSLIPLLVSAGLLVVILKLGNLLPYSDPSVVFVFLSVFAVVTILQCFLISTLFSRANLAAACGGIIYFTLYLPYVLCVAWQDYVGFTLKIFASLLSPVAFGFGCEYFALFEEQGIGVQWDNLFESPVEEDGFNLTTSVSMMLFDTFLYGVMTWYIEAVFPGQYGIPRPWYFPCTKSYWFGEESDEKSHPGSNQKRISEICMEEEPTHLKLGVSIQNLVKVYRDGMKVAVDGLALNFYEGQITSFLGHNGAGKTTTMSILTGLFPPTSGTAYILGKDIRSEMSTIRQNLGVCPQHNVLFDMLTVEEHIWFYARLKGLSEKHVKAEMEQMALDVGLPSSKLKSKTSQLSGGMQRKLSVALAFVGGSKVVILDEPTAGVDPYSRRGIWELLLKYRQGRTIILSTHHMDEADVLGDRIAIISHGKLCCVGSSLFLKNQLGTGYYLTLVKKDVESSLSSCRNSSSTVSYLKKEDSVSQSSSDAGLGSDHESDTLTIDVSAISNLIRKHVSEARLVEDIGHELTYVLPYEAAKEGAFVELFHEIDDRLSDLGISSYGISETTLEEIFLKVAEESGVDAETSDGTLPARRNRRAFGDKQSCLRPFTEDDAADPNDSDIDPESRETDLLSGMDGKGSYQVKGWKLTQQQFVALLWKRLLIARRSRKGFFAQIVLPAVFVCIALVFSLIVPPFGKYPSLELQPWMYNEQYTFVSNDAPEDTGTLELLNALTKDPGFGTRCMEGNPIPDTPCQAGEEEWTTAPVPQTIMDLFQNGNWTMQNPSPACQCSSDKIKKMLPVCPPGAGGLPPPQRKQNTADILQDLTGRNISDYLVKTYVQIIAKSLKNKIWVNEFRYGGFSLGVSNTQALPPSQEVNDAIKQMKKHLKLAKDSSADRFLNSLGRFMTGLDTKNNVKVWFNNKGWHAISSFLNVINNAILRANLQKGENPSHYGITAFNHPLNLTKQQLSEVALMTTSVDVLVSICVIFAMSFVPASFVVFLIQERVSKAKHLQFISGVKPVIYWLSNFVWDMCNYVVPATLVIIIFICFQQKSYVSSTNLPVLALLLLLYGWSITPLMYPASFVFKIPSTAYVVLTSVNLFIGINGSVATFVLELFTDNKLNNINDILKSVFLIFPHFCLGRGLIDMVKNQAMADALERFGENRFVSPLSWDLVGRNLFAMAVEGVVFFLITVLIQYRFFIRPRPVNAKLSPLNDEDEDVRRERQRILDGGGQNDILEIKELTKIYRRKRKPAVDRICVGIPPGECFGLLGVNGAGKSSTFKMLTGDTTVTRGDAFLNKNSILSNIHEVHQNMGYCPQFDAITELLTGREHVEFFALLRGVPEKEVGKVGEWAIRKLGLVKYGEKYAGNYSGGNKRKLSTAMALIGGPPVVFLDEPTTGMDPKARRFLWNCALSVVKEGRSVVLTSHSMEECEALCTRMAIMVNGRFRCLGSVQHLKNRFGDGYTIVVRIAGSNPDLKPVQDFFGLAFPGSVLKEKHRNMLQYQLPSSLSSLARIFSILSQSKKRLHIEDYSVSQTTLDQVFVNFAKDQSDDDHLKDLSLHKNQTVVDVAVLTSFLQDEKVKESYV
(iii) Assessment of the ABCA1 dependency of the effects of the hits on cholesterol efflux. These experiments investigated the extent to which ABCA1 is indeed the target of the hits. This was performed utilizing BHK (baby hamster kidney) cells with inducible expression of ABCA1 followed by determination of the effects for the presence and absence of ABCA1 on the translocation of cholesterol to apoE4.

Assay [2] concerns the target T2, ABCA1 (Homo sapiens, UniProt O95477).
T2 construct: The proteins used in these experiments were Extra-Cellular Domain 1 (ECD1) of ABCA1 and Extra-Cellular Domain 2 (ECD2); purchased Biomatick
T2 sequence (O95477 43-639 limits assumed): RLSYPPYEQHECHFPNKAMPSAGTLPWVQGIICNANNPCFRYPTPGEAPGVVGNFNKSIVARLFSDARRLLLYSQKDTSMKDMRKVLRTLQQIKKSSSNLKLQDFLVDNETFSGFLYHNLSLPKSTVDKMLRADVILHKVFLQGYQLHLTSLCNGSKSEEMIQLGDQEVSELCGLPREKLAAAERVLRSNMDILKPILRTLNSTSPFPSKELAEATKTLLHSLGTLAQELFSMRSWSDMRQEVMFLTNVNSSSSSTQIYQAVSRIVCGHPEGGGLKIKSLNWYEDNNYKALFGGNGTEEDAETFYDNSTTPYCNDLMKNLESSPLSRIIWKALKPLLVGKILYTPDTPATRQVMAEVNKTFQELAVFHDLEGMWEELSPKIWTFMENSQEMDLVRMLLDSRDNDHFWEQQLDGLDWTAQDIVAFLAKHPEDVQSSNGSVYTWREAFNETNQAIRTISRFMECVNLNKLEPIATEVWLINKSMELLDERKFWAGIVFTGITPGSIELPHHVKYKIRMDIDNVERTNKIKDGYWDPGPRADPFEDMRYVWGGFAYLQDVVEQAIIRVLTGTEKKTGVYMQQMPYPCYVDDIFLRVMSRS
The assay is described as follows: Target recognition: binding to ABCA1 (summary of labelled and label free MST). Here is the method:
Microscale thermophoresis (MST) measurements. MST measurements of the binding of the HTS hits to the extracellular domain (ECD) of ABCA1 were performed by two complimentary methods utilizing either fluorescently labeled proteins or the endogenous fluorescence of unlabeled proteins. This was pursued as follows:
The experiments were performed with the purified extracellual domains 1 (ECD1) and 2 (ECD2) of ABCA1 [18]. Two complementary MST tests were performed, in which either the proteins were labeled with a fluorescence moiety or the endogenous fluorescence of the unlabeled proteins was monitored).
A. HTS Screening and Target Recognition • 1.

By EC50 is commonly meant the concentration giving half of the maximal effect. `Cc1nn(CC(=O)c2ccc(Br)s2)c(C)c1[N+](=O)[O-]` [Hit #3]: the EC50 in the assay on Human Astrocytes (Table 2) and with Human Astrocytes (Table 4) was more than 44.8 µM in each case. The “Lipidation of apoE4 in the absence of ABCA1” value on ABCA1 [1] (BHK cells not expressing ABCA1) is recorded as “did not stimulate any lipidation of apoE4”. Besides, the “ABCA1 dependency of the effect on cholesterol efflux” value on ABCA1 [1] is “depend on the presence of ABCA1”. For the same compound, the “MST binding to ECD1” value at ABCA1 [2] is listed as “bind saturably to ECD1”.
`CC(C)(C)C(=O)COC(=O)c1ccccc1SCc1cc(-c2ccco2)on1` [Hit #4]: the half-maximal effective concentration (EC50) with Human Astrocytes (Table 2) and in the assay on Human Astrocytes (Table 4) was 28.3 µM throughout. Besides, at ABCA1 [1], the “ABCA1 dependency of the effect on cholesterol efflux” value was “depend on the presence of ABCA1”. The “MST binding to ECD1” value at ABCA1 [2] is recorded as “bind saturably to ECD1”.
For the compound `O=[N+]([O-])c1ccc(N2CCCCC2)c2nonc12` [Hit #7], the EC50 with Human Astrocytes (Table 2) and with Human Astrocytes (Table 4) was 8.56 µM throughout. The “Stimulation of cholesterol efflux from human astrocytes to apoE4” value with Human Astrocytes (test compounds 50 μM) was “activates cholesterol efflux”. The “ABCA1 dependency BHK Cells” value on ABCA1 [1] (Table 2) and at ABCA1 [1] (Table 4) was “No activity” throughout. Moreover, on ABCA1 [1] (BHK cells expressing ABCA1), the “Cholesterol efflux from ABCA1 expressing BHK cells” value is “had no effect”. In addition, at ABCA1 [2], the “MST binding to ECD1” value was “scored positively”.
For `C[C@]12CC[C@@H](O)CC1CCC1C2CC[C@](C)(C(=O)O)C1/C=C1/Nc2ccccc2C1=O` (some centres unmarked) [Hit #12], the EC50 with Human Astrocytes (Table 2) and in the assay on Human Astrocytes (Table 4) was more than 44.8 µM in each case.
For the compound `CSC(SC)=C1CC/C(=C/c2ccc(N(C)C)cc2)C1=O` [Hit #14], the EC50 in the assay with Human Astrocytes (Table 2) and with Human Astrocytes (Table 4) was more than 44.8 µM throughout.
